Measurements as given in patent US20120095055A1, “HEXAHYDROCYCLOPENTYL[f]INDAZOLE 5-HYDROXYMETHYL ETHANOLS AND DERIVATIVES THEREOF AS SELECTIVE GLUCOCORTICOID RECEPTOR MODULATORS” (Merck Sharp & Dohme, Corp., priority 2009, published 2012).

target: T1, glucocorticoid receptor (GR) (Homo sapiens, UniProt P04150); experiment: GR Ligand Binding Assay (3H-dexamethasone displacement, HeLa cell lysate); details: 3H-DEX trace, DEX as reference, read-out: GR BIND Ki
T1 construct: endogenous in cells; host or cells: HeLa (ATCC) cell lysate supernatant
T1 sequence (P04150 1-777): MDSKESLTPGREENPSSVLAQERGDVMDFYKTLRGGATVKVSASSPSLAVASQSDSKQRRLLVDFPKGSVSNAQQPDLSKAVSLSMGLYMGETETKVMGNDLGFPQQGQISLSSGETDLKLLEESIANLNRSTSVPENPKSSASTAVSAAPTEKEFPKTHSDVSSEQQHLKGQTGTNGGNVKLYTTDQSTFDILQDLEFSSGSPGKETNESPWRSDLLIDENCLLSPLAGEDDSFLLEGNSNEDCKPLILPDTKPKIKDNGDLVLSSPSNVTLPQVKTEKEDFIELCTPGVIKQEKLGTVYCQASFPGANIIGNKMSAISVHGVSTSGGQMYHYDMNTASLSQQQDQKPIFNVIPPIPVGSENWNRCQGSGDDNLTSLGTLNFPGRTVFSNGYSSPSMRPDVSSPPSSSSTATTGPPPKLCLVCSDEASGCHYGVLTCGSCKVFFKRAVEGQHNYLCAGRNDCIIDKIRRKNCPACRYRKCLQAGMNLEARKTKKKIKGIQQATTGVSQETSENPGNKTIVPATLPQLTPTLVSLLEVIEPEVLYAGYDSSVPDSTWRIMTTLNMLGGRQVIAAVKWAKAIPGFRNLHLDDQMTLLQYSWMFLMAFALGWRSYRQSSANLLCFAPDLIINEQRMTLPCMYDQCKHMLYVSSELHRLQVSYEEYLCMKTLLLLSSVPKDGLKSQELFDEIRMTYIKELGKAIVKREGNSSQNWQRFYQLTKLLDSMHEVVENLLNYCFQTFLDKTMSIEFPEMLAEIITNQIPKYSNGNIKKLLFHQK
Experimental: Binding Buffer: TEGM (10 mM Tris-HCl, 1 mM EDTA, 10% glycerol, 1 mM beta-mecaptoethanol, 10 mM Sodium Molybdate, pH 7.2)
Dexmethasone-methyl-^3H, (DEX*); (Amersham cat# TRK645) Dexamethasone(DEX) (Sigma, cat# D1756):
Cells (Hall R. E., et al., European Journal of Cancer, 30A: 484-490 (1994)) HeLa (ATCC) cultured in RPMI 1640 (Gibco 11835-055) containing 20 mM Hepes, 4 mM L-glu, 10 ug/ml of human insulin (Sigma, I-0259), 10% FBS and 20 ug/ml of Gentamicin (Gibco#15710-072) are rinsed twice in PBS. Phenol red-free Trypsin-EDTA is diluted in the same PBS 1:10. The cell layers are rinsed with 1× Trypsin, extra Trypsin is poured out, and the cell layers are incubated at 37° C. for ˜2 min. The flask is tapped and checked for signs of cell detachment. Once the cells begin to slide off the flask, the complete media is added. The cells are counted at this point, then diluted to the appropriate concentration and split into flasks or dishes for further culturing (Usually 1:3 to 1:6 dilution).
When the cells are 70 to 85% confluent, they are detached as described above, and collected by centrifuging at 1000 g for 10 minutes at 4° C. The cell pellet is washed twice with TEGM (10 mM Tris-HCl, 1 mM EDTA, 10% glycerol, 1 mM beta-mercaptoethanol, 10 mM Sodium Molybdate, pH 7.2). After the final wash, the cells are resuspended in TEGM at a concentration of 10^7 cells/mL. The cell suspension is snap frozen in liquid nitrogen or ethanol/dry ice bath and transferred to −80° C. freezer on dry ice. Before setting up the binding assay, the frozen samples are left on ice-water to just thaw (˜1 hr). Then the samples are centrifuged at 12,500 g to 20,000 g for 30 min at 4° C. The supernatant is used to set-up assay right away. If using 50 μL of supernatant, the test compound can be prepared in 50 μL of the TEGM buffer.
1×TEGM buffer is prepared, and the isotope-containing assay mixture is prepared in the following order: EtOH (2% final concentration in reaction), ^3H-DEX (Amersham Biosciences) and 1×TEGM. [e.g. For 100 samples, 200 μL (100×2) of EtOH+4.25 μL of 1:10 ^3H—Dex stock+2300 μL (100×23) 1×TEGM]. The compound is serially diluted, e.g., if starting final conc. is 1 μM, and the compound is in 25 μL of solution, for duplicate samples, 75 μL of 4×1 μM solution is made and 3 μL of 100 μM is added to 72 μL of buffer, and 1:5 serial dilution.
25 μL, of 3H-DEX (6 nM) trace and 25 μL compound solution are first mixed together, followed by addition of 50 μL receptor solution. The reaction is gently mixed, spun briefly at about 200 rpm and incubated at 4° C. overnight. 100 μL of 50% HAP slurry is prepared and added to the incubated reaction which is then vortexed and incubated on ice for 5 to 10 minutes. The reaction mixture is vortexed twice more to resuspend HAP while incubating reaction. The samples in 96-well format are then washed in wash buffer using The FilterMate™ Universal Harvester plate washer (Packard). The washing process transfers HAP pellet containing ligand-bound expressed receptor to Unifilter-96 GF/B filter plate (Packard). The HAP pellet on the filter plate is incubated with 50 μL of MICROSCINT (Packard) scintillint for 30 minutes before being counted on the TopCount microscintillation counter (Packard). IC50s are calculated using DEX as a reference.

Compound	Ki [nM]
C[C@]12Cc3cnn(-c4ccccc4)c3C=C1CC[C@@]2(CO)CC(O)c1ccccn1 (single isomer, unassigned) [Example 23b]	3.3
C[C@]12Cc3cnn(-c4ccc(F)cc4)c3C=C1CC[C@@]2(CO)CC(O)c1ccccc1 (single isomer, unassigned) [Example 13b]	1.9
CC(O)(C[C@]1(CO)CCC2=Cc3c(cnn3-c3ccc(F)cc3)C[C@@]21C)c1cccnc1 (single isomer, unassigned) [Example 25b]	21.9
C[C@]12Cc3cnn(-c4cccc(F)c4)c3C=C1CC[C@@]2(CO)CC(O)c1ccccn1 (single isomer, unassigned) [Example 19b]	9
C[C@]12Cc3cnn(-c4ccc(F)cc4)c3C=C1CC[C@@]2(CO)CC(O)C(F)(F)F (single isomer, unassigned) [Example 28a]	8.3
C[C@]12Cc3cnn(-c4ccc(F)cc4)c3C=C1CC[C@@]2(CO)CC(O)c1ccncc1 (single isomer, unassigned) [Example 17a]	6.4
C[C@]12Cc3cnn(-c4ccc(F)cc4)c3C=C1CC[C@@]2(CO)CC(O)c1ccc(F)cn1 (single isomer, unassigned) [Example 22a]	2.3
C[C@]12Cc3cnn(-c4cccc(F)c4)c3C=C1CC[C@@]2(CO)CC(O)c1ccccn1 (single isomer, unassigned) [Example 19a]	3.7
C[C@]12Cc3cnn(-c4ccc(F)cc4)c3C=C1CC[C@@]2(CO)CC1OC(=O)c2ccccc21 (single isomer, unassigned) [Example 12a]	2.6
C[C@]12Cc3cnn(-c4ccc(F)cc4)c3C=C1CC[C@@]2(CO)CC(O)c1cc(F)cc(Cl)c1 (single isomer, unassigned) [Example 6b]	1.3
COc1cccnc1C(O)C[C@]1(CO)CCC2=Cc3c(cnn3-c3ccc(F)cc3)C[C@@]21C (single isomer, unassigned) [Example 21a]	7.6
C[C@]12Cc3cnn(-c4ccc(F)cc4)c3C=C1CC[C@@]2(CO)CC(O)c1cccnc1 (single isomer, unassigned) [Example 15a]	10
C[C@]12Cc3cnn(-c4ccc(F)cc4)c3C=C1CC[C@@]2(CO)CC(O)C(F)(F)F (single isomer, unassigned) [Example 28b]	5.4
C[C@]12Cc3cnn(-c4ccc(F)cc4)c3C=C1CC[C@@]2(CO)CC(O)c1ccccc1Cl (single isomer, unassigned) [Example 3b]	0.9
C[C@]12Cc3cnn(-c4ccc(F)cc4)c3C=C1CC[C@@]2(CO)CC(O)C1CC1 (single isomer, unassigned) [Example 20a, 1-cyclopropyl-2-[(4αS)-1-(4-fluorophenyl)-5-(hydroxymethyl)-4α-methyl-1,4,4α,5,6,7-hexahydrocyclopenta[f]indazol-5-yl]ethanol]	22.6
C[C@]12Cc3cnn(-c4cccc(F)c4)c3C=C1CC[C@@]2(CO)CC(O)c1cccnc1 (single isomer, unassigned) [Example 27b]	13.4
Cc1cccc(C(O)C[C@]2(CO)CCC3=Cc4c(cnn4-c4ccc(F)cc4)C[C@@]32C)c1 (single isomer, unassigned) [Example 5a]	1.4

Further compounds by falling Ki, results first:

Ki [nM]	Compound
35.5	COc1cccnc1C(O)C[C@]1(CO)CCC2=Cc3c(cnn3-c3cccc(F)c3)C[C@@]21C (single isomer, unassigned) [Example 26b]
19.2	C[C@]12Cc3cnn(-c4ccc(F)cc4)c3C=C1CC[C@@]2(CO)CC1OC(=O)c2ccccc21 (stereo partly drawn) [Example 11, 3-{[(4αS,5R)-1-(4-fluorophenyl)-5-(hydroxymethyl)-4α-methyl-1,4,4α,5,6,7,7a,8-octahydrocyclopenta[f]indazol-5-yl]methyl}-2-benzofuran-1(3H)-one]
7.7	C[C@]12Cc3cnn(-c4ccccc4)c3C=C1CC[C@@]2(CO)CC(O)c1ccccn1 (single isomer, unassigned) [Example 23a]
7.5	COc1ccc(C(O)C[C@]2(CO)CCC3=Cc4c(cnn4-c4ccc(F)cc4)C[C@@]32C)nc1 (single isomer, unassigned) [Example 24b]
7.5	C[C@]12Cc3cnn(-c4ccc(F)cc4)c3C=C1CC[C@@]2(CO)CC(O)c1ccncc1 (single isomer, unassigned) [Example 17b]
5.1	C[C@]12Cc3cnn(-c4ccc(F)cc4)c3C=C1CC[C@@]2(CO)CC(O)c1ccc(F)cn1 (single isomer, unassigned) [Example 22b]
4	C[C@]12Cc3cnn(-c4ccc(F)cc4)c3C=C1CC[C@@]2(CO)CC(O)c1ccccn1 (single isomer, unassigned) [Example 1b]
3.7	Cc1ccc(C(O)C[C@]2(CO)CCC3=Cc4c(cnn4-c4ccc(F)cc4)C[C@@]32C)nc1 (stereo partly drawn) [Example 16, 2-[(4αS,5R)-1-(4-fluorophenyl)-5-(hydroxymethyl)-4α-methyl-1,4,4α,5,6,7-hexahydrocyclopenta[f]indazol-5-yl]-1-(5-methylpyridin-2-yl)ethanol]
3.7	COc1cccnc1C(O)C[C@]1(CO)CCC2=Cc3c(cnn3-c3ccc(F)cc3)C[C@@]21C (single isomer, unassigned) [Example 21b]
3.1	C[C@]12Cc3cnn(-c4ccc(F)cc4)c3C=C1CC[C@@]2(CO)CC(O)c1ncccc1F (single isomer, unassigned) [Example 10a]
2.1	Cc1ccc(C(O)C[C@]2(CO)CCC3=Cc4c(cnn4-c4ccc(F)cc4)C[C@@]32C)cc1 (single isomer, unassigned) [Example 2b]
1.8	C[C@]12Cc3cnn(-c4ccc(F)cc4)c3C=C1CC[C@@]2(CO)CC(O)c1ncccc1F (single isomer, unassigned) [Example 10b]
1.5	C[C@]12Cc3cnn(-c4ccc(F)cc4)c3C=C1CC[C@@]2(CO)CC1OC(=O)c2ccccc21 (single isomer, unassigned) [Example 12b]
1.1	C[C@]12Cc3cnn(-c4ccc(F)cc4)c3C=C1CC[C@@]2(CO)CC(O)c1cc(F)cc(Cl)c1 (single isomer, unassigned) [Example 6a]
0.6	C[C@]12Cc3cnn(-c4ccc(F)cc4)c3C=C1CC[C@@]2(CO)CC(O)c1cccc(C(F)(F)F)c1 (single isomer, unassigned) [Example 7a]
